The source of these data is PubChem BioAssay AID1645866 (Buhrlage Lab, Dana-Farber Cancer Institute and Novartis …, 2021).

Molecules are shown by their SMILES. Calls of active or inactive are those of the source.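 How the source made its calls: active means in confirmatory dose-response testing, peak deubiquitinase inhibition of 30% or more; inactive means the rest.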 Where only a bound is given, the exact number is not on record here.

For orientation: IC50 means the point on the concentration scale where inhibition reaches its midpoint.

Chain of Ubiquitin carboxyl-terminal hydrolase 28 (Homo sapiens) (Q96RU2 whole entry, looked up): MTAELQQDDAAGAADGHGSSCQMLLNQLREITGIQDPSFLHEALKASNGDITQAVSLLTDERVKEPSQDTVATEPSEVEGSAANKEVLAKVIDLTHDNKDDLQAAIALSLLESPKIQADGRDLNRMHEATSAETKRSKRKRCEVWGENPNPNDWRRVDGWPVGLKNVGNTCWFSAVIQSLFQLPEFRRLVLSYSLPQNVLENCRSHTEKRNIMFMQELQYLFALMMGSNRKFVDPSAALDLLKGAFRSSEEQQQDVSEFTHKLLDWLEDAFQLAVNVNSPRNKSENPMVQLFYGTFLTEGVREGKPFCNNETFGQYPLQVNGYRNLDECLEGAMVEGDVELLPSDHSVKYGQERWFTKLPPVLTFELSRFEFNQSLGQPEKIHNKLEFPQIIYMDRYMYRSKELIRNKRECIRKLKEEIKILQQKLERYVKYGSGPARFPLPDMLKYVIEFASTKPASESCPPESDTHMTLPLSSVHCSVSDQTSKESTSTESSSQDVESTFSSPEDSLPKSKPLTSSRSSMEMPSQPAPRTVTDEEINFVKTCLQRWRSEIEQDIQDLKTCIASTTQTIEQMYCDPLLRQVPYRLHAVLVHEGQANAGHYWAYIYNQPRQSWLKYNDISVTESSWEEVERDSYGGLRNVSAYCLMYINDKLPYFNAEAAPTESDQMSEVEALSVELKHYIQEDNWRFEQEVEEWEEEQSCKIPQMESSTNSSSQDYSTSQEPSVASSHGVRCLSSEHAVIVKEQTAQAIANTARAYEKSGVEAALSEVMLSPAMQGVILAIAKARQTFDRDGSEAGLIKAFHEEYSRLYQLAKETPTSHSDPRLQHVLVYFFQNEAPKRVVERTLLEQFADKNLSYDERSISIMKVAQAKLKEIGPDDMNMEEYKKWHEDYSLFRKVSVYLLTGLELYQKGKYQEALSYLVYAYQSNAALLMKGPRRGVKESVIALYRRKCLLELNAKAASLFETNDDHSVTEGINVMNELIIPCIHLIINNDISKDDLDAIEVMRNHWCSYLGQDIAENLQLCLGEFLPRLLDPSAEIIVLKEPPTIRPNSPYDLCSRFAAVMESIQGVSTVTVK

This experiment concerns the target Ubiquitin carboxyl-terminal hydrolase 28 (Homo sapiens) (UniProt Q96RU2). The experiment in a line: Ubiquitin-specific peptidase 28 DUB inhibitors, biochemical concentration-dependence assay, validation of primary screening hits (AID 1645866). As to conditions: purified USP28, ubiquitin-rhodamine fluorescence, 30 min.
`COc1ccc(CCn2cnc3c([nH]c4ccccc43)c2=O)cc1`: the concentration for half-maximal inhibition (IC50) was 12.5 µM. On to `CN(C)S(=O)(=O)N1CCCC2(C1)Nc1cccnc1NC2=NC1CCCC1` (configuration not stated), for which the IC50 is > 50 µM (inactive). Consider `CCc1ccc2[nH]c3c(c(=O)c2c1)CN(CC(=O)NCc1ccc2c(c1)OCO2)CC3`, for which the IC50 is 20 µM.

`O=C(NCc1ccc(Cl)cc1)Nc1cccc2ccccc12`: the concentration for half-maximal inhibition (IC50) is 40.4 µM.

As for `COCC(=O)Nc1cc(F)c2nc(N3CCOCC3)ccc2c1`, the IC50 was > 50 µM (inactive). In the case of `O=C1COc2ccccc2N1Cc1noc(-c2ccccc2)n1`, the IC50 is 4.6 µM. For `CCOc1ccc(CCNC(=O)c2cccc3c2C(=O)N(CCOC)C3)cc1OCC` the value was 16.1 µM; for `Clc1ccc(C[n+]2cc(-c3ccc(Cl)cc3)n3c2CCC3)cc1`, 13.6 µM; for `O=C(Nc1nc2c(ccc3ccccc32)s1)c1cccc(Br)c1`, 9.32 µM.

In the case of `O=S1(=O)CCN(Cc2ccccc2)c2c(F)nc(N3CCCCC3)c(F)c21`, the IC50 was > 50 µM (inactive). With `O=C(COC(=O)c1ccc(Cl)cc1)Nc1ccc2[nH]c(=O)[nH]c2c1`, the half-maximal inhibitory concentration (IC50) was 9.08 µM. With `Cc1cnc(CN2CCCC(c3ccc4cn[nH]c4n3)C2)cn1` (configuration not stated), the IC50 is > 50 µM (inactive).

On to `Cc1cccc(-n2nc(C)c3c2NC(=O)CC3C(=O)c2cc3ccccc3o2)c1` (configuration not stated), for which the IC50 was 25.3 µM.

Turning to `COc1ccc(NC(=O)c2nnn(-c3ccccc3F)c2C)cc1OC`, the IC50 was 2.61 µM. The same measure for `COc1ccc(-c2cc(-c3ccccc3)nc(SCC(N)=O)c2C#N)cc1OC`: 1.97 µM; for `O=C(NCc1nc2ccccc2[nH]1)c1cccc(S(=O)(=O)N2CCc3ccccc32)c1`: 31.4 µM; for `O=C(NCc1nc(-c2ccc3c(c2)[nH]c(=O)n3C2CCCC2)no1)c1ccccc1`: > 50 µM (inactive). On to `Cc1ccc2c(c1)[C@]1(C(=O)N2)[C@@H](C(=O)c2ccccc2)[C@]2(C(=O)Nc3ccccc32)[C@@H]2CCCN21`, for which the IC50 is 23.3 µM. With `Cc1cccc(OCCn2c(CCNC(=O)C3CCCCC3)nc3ccccc32)c1`, the half-inhibitory concentration (IC50) is 21.6 µM. As for `COc1ccc(NC(=O)c2nnn(-c3ccccc3C)c2C)cc1OC`, the IC50 was 4.78 µM. With `CCc1nc(-c2cccc(NC(=O)c3ccc(C#N)cc3F)c2)no1`, the IC50 was 36.2 µM. The same measure for `Cn1c(-c2nnc(SCC(=O)Nc3ccccc3F)o2)cc2ccccc21`: 17.9 µM; for `COc1ccccc1N1CCN(C(=O)c2ccc3c(c2)N(Cc2cc(C)ccc2C)C(=O)c2ccccc2S3=O)CC1` (configuration not stated): 29.7 µM. For `Cc1ccc2c(c1)N(C)C(=O)c1cc(NC(=O)c3ccc(F)cc3)ccc1O2` the value was 4.21 µM; for `Cc1ccc2c(Nc3ccc(CC(=O)O)cc3)c(C(=O)N3CCCC3)cnc2n1`, > 50 µM (inactive); for `Fc1cc(F)c2[nH]cc(-c3nnnn3-c3ccc4ccccc4c3)c2c1`, 22 µM. For the compound `O=C1NC(=O)/C(=C/c2ccc(OC(=O)c3ccc(Cl)cc3Cl)cc2)N1`, the IC50 is 4.46 µM. The same measure for `Cc1ccc(C(=O)NCC(=O)Nc2nc3ccccc3[nH]2)c(C)c1`: 24.6 µM; for `O=C(COc1ccc(Cl)cc1)Nc1noc(-c2ccccc2)n1`: 22.4 µM. The same measure for `CC(=O)Nc1ccc(S(=O)(=O)NCc2ccc(C(=O)NCCc3ccc(Cl)cc3)cc2)cc1`: 1.77 µM; for `CC1Oc2cc3c(-c4c(O)cc(O)c5c(O)c6c(cc45)OC(C)C(C)C6=O)c(O)cc(O)c3c(O)c2C(=O)C1C` (configuration not stated): 2.18 µM. As for `Cc1nc2cc(NC(=O)C3CN(C(=O)c4cnccn4)C3)ccc2s1`, the IC50 was 9.44 µM. On to `Clc1cncc(Oc2nc(-c3cccnc3)nc3ccccc23)c1`, for which the IC50 is 9.69 µM. Consider `Cc1nc(NCc2ccccn2)c2cc(-c3ccccc3)sc2n1`, for which the IC50 is 23.7 µM.

With `COc1ccc(NC(=O)c2ccnc(Nc3ccc(OC)cc3)c2)cc1`, the IC50 is 39.7 µM. Consider `CCCc1nc2sc3c(N(CC)CC)ncnc3c2c2c1CCC2`, for which the IC50 is 3.77 µM. For `Cc1nc(N2CCCC2)ncc1-c1cc(=O)[nH]c(N2CCc3ccccc3C2)n1` the value was 21.9 µM; for `COc1ccc2nc(Nc3nc(-c4cnc(N5CCOCC5)nc4C)cc(=O)[nH]3)nc(C)c2c1`, > 50 µM (inactive). For `O=C(O)CCCCCN1C(=O)CC(c2ccc(Cl)cc2)CC1=O` the value was 16.7 µM; for `Cc1cccc(C(=O)OCC(=O)Nc2ccc3[nH]c(=O)[nH]c3c2)c1C`, 4.94 µM; for `Cc1cccc(C)c1NC(=O)Cn1c(=O)n(CCCCC(=O)NCc2ccc3c(c2)OCO3)c(=O)c2ccccc21`, 1.88 µM. Take `CC(C)OC(=O)c1cc2c(ccn2-c2ccc(F)cc2)n1CC(=O)NC1CCCCC1`: the IC50 is 27.5 µM. As to `CCOC(=O)C1CCN(C(=O)c2ccc3c(c2)NC(=O)C2CCCN32)CC1` (configuration not stated), the IC50 is > 50 µM (inactive). For `Cc1nc(-c2ccc(-n3cc(C(=O)Nc4cccc(F)c4)c(C)n3)cc2)no1` the value was 42.5 µM; for `CNC(=O)c1cc2c(=O)n3cccc(C)c3nc2n1Cc1ccccc1`, 18.8 µM. The same measure for `COc1ccccc1NC(=O)Nc1ccc(NC(=O)c2ccccc2O)cc1`: 37.4 µM.

Consider `CCOc1ccc(NC(=O)Cn2c(=O)n(CCC(=O)NCc3ccccc3OC)c(=O)c3ccccc32)cc1`, for which the IC50 is 4.01 µM. For `CSc1ccccc1NC(=O)c1ccc(-n2cccn2)nn1` the value was 5.75 µM; for `Cn1nccc1C(=O)N1CCCCC1c1ncc(Cc2ccc(Cl)cc2)o1` (configuration not stated), > 50 µM (inactive); for `COc1ccc(-c2nc(-c3nnn(Cc4ccc(F)cc4)c3C)no2)c(OC)c1`, 5.4 µM.

Take `Cn1nc(-c2nc(-c3ccccc3)no2)c2c1CCN(C(=O)C1CCCC1)C2`: the IC50 was 24.1 µM. For `CC(=O)N1CCc2cc(CNC(=O)Nc3cc(C)ccc3C)ccc21` the value was 46.7 µM. With `Cc1oc(-c2ccc(C(=O)NCC3COCCO3)cc2)nc1CN1CCc2ccccc21` (configuration not stated), the IC50 was 38.8 µM. For `CC(OC(=O)c1ccc2c(c1)OCCO2)C(=O)NCC1CCCCC1` (configuration not stated) the value was 26.1 µM; for `O=C(Nc1ccc2c(c1)OCCO2)c1cc(CN2CCOCC2)on1`, 11.9 µM.

Regarding `Cc1cc(C)n2nc(CNc3cccc(Cl)c3)nc2n1`, the IC50 was 16.4 µM. For `c1ccc2c(c1)CCc1c-2nc2ccccc2c1N1CCOCC1` the value was > 50 µM (inactive).

Consider `Nc1nonc1C(=O)NCCNCc1cccc(OCc2ccc(Cl)cc2)c1`, for which the IC50 is 32.6 µM. For `Cc1cc2c(cc1C)NC(CC(=O)Nc1ccc(O)cc1)C(=O)N2` (configuration not stated) the value was 25 µM.

As for `O=C(Nc1ccc(-c2cn3ccsc3n2)cc1)c1ccc(Cl)c([N+](=O)[O-])c1`, the IC50 is 1.53 µM. For `COC(=O)c1sccc1NC(=O)COc1ccsc1C(=O)OC`, the IC50 is 25.6 µM. For `Cc1ccccc1NC(=O)Cn1c(N2CCOCC2)nc2cc(C)n(C)c2c1=O` the value was 20.1 µM; for `CSc1ccccc1C(=O)Nc1sc2c(c1C(N)=O)CCC(C)C2` (configuration not stated), 2.78 µM. For the compound `COc1ccccc1CNC(=O)CCCn1c(=O)c2ccccc2n(CC(=O)N2CCN(c3ccccc3)CC2)c1=O`, the IC50 was 28.8 µM. Consider `Cc1nc2ccccc2nc1SCC(=O)Nc1ccc2c(c1)OCO2`, for which the IC50 was 25.1 µM. As to `COc1ccccc1NC(=O)c1nn(-c2cccc(F)c2)c(OC)cc1=O`, the IC50 is 25.1 µM. In the case of `c1cncc(-c2nc(Nc3ccc4c(c3)OCCO4)c3ccccc3n2)c1`, the IC50 was 34.9 µM.
